Legend:
Format in all cases: cell-based
Microsporum canis = assay: Antifungal activity in vitro, resazurin growth inhibition: Microsporum canis (B68128)
Outline: (§1)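 Dermatophytes incubated at 27° C. for one week or more with compound, max 64 μM, in RPMI-1640/MOPS pH 7.0±0.1, 10^3 cfu/well. Viability by resazurin-to-resorufin fluorescence, 550/590 nm.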

[1] = test system: Trichophyton mentagrophytes; assay: Antifungal activity in vitro, resazurin growth inhibition: Trichophyton mentagrophytes (B70554)
Outline: as §1

Trichophyton rubrum = assay: Antifungal activity in vitro, resazurin growth inhibition: Trichophyton rubrum (B68183)
Outline: as §1

Sporothrix schenkii = assay: Antifungal activity in vitro, resazurin growth inhibition: Sporothrix schenkii (B62482)
Outline: (§2)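 Compound dilutions, with 64 μM as the highest in-test level, are spotted onto plates, then an inoculum of 10^3 cfu in RPMI-1640 plus 2% glucose (MOPS, pH 7.0±0.1) is added. Plates are incubated at species-dependent time and temperature, up to a week or more at 27° C. for dermatophytes.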

Aspergillus fumigatus = assay: Antifungal activity in vitro, resazurin growth inhibition: Aspergillus fumigatus (B42928)
Outline: as §2

Candida parapsilosis = assay: Antifungal activity in vitro, resazurin growth inhibition: Candida parapsilosis (B66126)
Outline: as §2

Cryptococcus neoformans = assay: Antifungal activity in vitro, resazurin growth inhibition: Cryptococcus neoformans (B66663)
Outline: as §2

Row | SMILES | Inf. B: Microsporum canis B68128, pIC50 (Microsporum canis) | Inf. G: Trichophyton mentagrophytes B70554, pIC50 [1] | Inf. C: Trichophyton rubrum B68183, pIC50 (Trichophyton rubrum) | Inf. A: Sporothrix schenkii B62482, pIC50 (Sporothrix schenkii) | Inf. E: Aspergillus fumigatus B42928, pIC50 (Aspergillus fumigatus) | Inf. D: Candida parapsilosis B66126, pIC50 (Candida parapsilosis) | Inf. F: Cryptococcus neoformans B66663, pIC50 (Cryptococcus neoformans)
1 | Cc1cccc2oc(C3NCc4c(Cl)cccc4-n4cccc43)cc12.Cl (racemic) [Compound 36] | 5.19 | 5.21 | 5.10 | <4.19 | <4.19 | <4.19 | <4.19
2 | Br.CCn1ccc(C2NCc3c(Cl)cccc3-n3cccc32)n1 (racemic) [Compound 10] | 4.25 | <4.19 | <4.19 | <4.19 | <4.19 | <4.19 | <4.19
3 | Fc1cc(F)c2oc(C3=NCc4c(Cl)cc(Cl)cc4-n4cccc43)cc2c1 [Compound 129] | <4.19 | <4.19 | 4.96 | <4.19 | 5.61 | <4.19 | <4.19
4 | Cc1cc(C2=NCc3c(C)cccc3-n3cccc32)ccn1 [Compound 97] | 4.87 | 4.83 | 5.99 | <4.49 | <4.49 | <4.49 | <4.49
5 | Cc1ccc2cc(C3=NCc4c(Cl)cccc4-n4cccc43)ccc2n1 [Compound 112] | 5.18 | <4.19 | 6.02 | <4.19 | <4.19 | <4.19 | 5.07
6 | CCc1ccc(C2NCc3c(Cl)cccc3-n3cccc32)nc1.Cl (racemic) [Compound 13] | 5.40 | 5.00 | 5.70 | <4.19 | <4.19 | <4.19 | 4.52
7 | Fc1cccc2cc(C3=NCc4c(Cl)cc(Cl)cc4-n4cccc43)sc12 [Compound 171] | <4.19 | <4.19 | 5.73 | <4.19 | <4.19 | <4.19 | 6.50
8 | Cc1cccc2oc(C3=NCc4ccc(Cl)cc4-n4cccc43)cc12 [Compound 133] | <4.19 | <4.19 | <4.19 | <4.19 | <4.19 | <4.19 | 5.83
9 | Cl.Clc1cc(Cl)c2c(c1)-n1cccc1C(c1cc3ccccc3o1)NC2 (racemic) [Compound 31] | 5.59 | 4.87 | 5.31 | <4.19 | <4.19 | <4.19 | <4.19
10 | COc1ccc2oc(C3NCc4ccc(Cl)cc4-n4cccc43)cc2c1.Cl (racemic) [Compound 45] | 5.32 | <4.19 | 5.09 | 4.80 | <4.19 | <4.19 | 4.62
11 | Cc1cccc2c1CN=C(c1cnc(C(F)(F)F)nc1)c1cccn1-2 [Compound 103] | <4.19 | <4.19 | 4.49 | <4.19 | <4.19 | <4.19 | <4.19
12 | Cc1cccc(C2NCc3c(Cl)cccc3-n3cccc32)n1 (racemic) [Compound 12] | <4.49 | <4.49 | 4.92 | 4.59 | <4.49 | <4.49 | 4.82
13 | CCc1csc(C2=NCc3c(Cl)cc(Cl)cc3-n3cccc32)n1 [Compound 69] | 4.71 | <4.19 | 5.09 | <4.19 | <4.19 | <4.19 | <4.19
14 | Clc1cccc2c1CN=C(c1ccc3snnc3c1)c1cccn1-2 [Compound 195] | <4.19 | <4.19 | 6.34 | <4.19 | <4.19 | <4.19 | <4.19
15 | Cl.Fc1ccc2oc(C3NCc4ccc(Cl)cc4-n4cccc43)cc2c1 (racemic) [Compound 48] | 4.30 | <4.19 | 5.39 | <4.19 | <4.19 | <4.19 | 4.84
16 | Cc1cccc2c1CNC(c1ccc(C(F)(F)F)nc1)c1cccn1-2.Cl (racemic) [Compound 18] | 5.05 | 4.62 | 5.52 | <4.19 | <4.19 | <4.19 | <4.19
17 | CCc1ccc(C2=NCc3c(Cl)cc(Cl)cc3-n3cccc32)nc1 [Compound 73] | 5.10 | <4.49 | 6.09 | <4.49 | <4.49 | <4.49 | <4.49
18 | Cl.FC(F)(F)c1ccc(C2NCc3c(Cl)cccc3-n3cccc32)nn1 (racemic) [Compound 28] | 4.29 | 4.28 | 4.43 | <4.19 | <4.19 | <4.19 | <4.19
19 | Cl.c1ccc2c(c1)CNC(c1cc3ccccc3s1)c1cccn1-2 (racemic) [Compound 52] | 5.70 | 5.70 | 6.13 | 5.40 | 5.30 | <4.19 | 6.00

— patent publication US9493468B2, “Antifungal 5,6-dihydro-4H-pyrrolo[1,2-a][1,4]benzo-diazepines and 6H-pyrrolo[1,2-a][1,4]benzodiazepines substituted with heterocyclic derivatives” (Janssen Pharmaceutica NV, priority 2011, dated 2016)
